target: recombinant full length HPK-1 enzyme (Homo sapiens (Human), UniProt Q92918); assay: HPK-1 biochemical enzyme assay (ADP-Glo kinase inhibition); settings: recombinant full length HPK-1 6.8 nM, 10 μM ATP, 12.5 μM MBP, 30 mins at 25° C.
Procedure, shortened: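 Recombinant full-length human HPK-1 (6.8 nM) incubated 30 min at 25° C. with 10 μM ATP and 12.5 μM swine MBP in 40 mM Tris pH 7.4, 20 mM MgCl2, 50 μM DTT, 0.1 mg/mL BSA. ADP measured by ADP-Glo; IC50 from 10 concentrations, normalized to no-enzyme and vehicle controls.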

Chain of recombinant full length HPK-1 enzyme (Q92918 whole entry, species assumed): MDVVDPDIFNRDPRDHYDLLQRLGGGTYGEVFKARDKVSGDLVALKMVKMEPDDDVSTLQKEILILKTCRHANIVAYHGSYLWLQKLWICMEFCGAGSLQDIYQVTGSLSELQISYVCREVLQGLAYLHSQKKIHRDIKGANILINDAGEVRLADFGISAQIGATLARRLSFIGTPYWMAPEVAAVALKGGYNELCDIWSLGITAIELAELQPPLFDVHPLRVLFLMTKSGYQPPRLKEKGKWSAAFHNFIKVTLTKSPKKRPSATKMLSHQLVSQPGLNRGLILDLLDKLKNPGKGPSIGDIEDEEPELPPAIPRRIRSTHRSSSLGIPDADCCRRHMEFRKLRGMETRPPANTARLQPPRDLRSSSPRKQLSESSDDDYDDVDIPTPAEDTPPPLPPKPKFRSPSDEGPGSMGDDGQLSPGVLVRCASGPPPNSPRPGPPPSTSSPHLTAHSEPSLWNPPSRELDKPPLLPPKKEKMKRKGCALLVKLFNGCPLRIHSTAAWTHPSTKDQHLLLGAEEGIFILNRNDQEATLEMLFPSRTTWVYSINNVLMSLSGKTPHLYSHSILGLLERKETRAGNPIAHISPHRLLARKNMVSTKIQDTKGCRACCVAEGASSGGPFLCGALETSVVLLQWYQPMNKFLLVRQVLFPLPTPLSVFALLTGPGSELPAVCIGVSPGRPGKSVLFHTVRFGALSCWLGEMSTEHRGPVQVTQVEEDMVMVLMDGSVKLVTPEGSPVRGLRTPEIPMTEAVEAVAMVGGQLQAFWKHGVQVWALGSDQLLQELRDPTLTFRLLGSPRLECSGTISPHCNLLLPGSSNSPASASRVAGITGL

Row | IC50 [nM] | Structure (SMILES)
1 | ≤ 10 | Cc1c(Nc2cc[nH]c(=O)c2C(=O)Nc2ccc(N3CCN(C4COC4)CC3)cc2)cnc2c1NCCO2 [Example 256, 4-((8-methyl-2,3-dihydro-1H-pyrido[2,3-b][1,4]oxazin-7-yl)amino)-N-(4-(4-(oxetan-3-yl)piperazin-1-yl)phenyl)-2-oxo-1,2-dihydropyridine-3-carboxamide]
2 | 10 to 100 | Cc1c(Nc2cc[nH]c(=O)c2C(=O)Nc2ccc3nc[nH]c3c2)cnc2c1NCCO2 [Example 257, N-(1H-benzo[d]imidazol-6-yl)-4-((8-methyl-2,3-dihydro-1H-pyrido[2,3-b][1,4]oxazin-7-yl)amino)-2-oxo-1,2-dihydropyridine-3-carboxamide]
3 | 10 to 100 | Cc1c(Nc2cc[nH]c(=O)c2C(=O)Nc2ccc3c(c2)NC(=O)CC3)cnc2c1NCCO2 [Example 258, 4-((8-methyl-2,3-dihydro-1H-pyrido[2,3-b][1,4]oxazin-7-yl)amino)-2-oxo-N-(2-oxo-1,2,3,4-tetrahydroquinolin-7-yl)-1,2-dihydropyridine-3-carboxamide]
4 | ≤ 10 | Cc1c(Nc2cc[nH]c(=O)c2C(=O)Nc2ccc(N3CCN(C4CCCC4)CC3)c(F)c2)cnc2c1NCCO2 [Example 259, N-(4-(4-cyclopentylpiperazin-1-yl)-3-fluorophenyl)-4-((8-methyl-2,3-dihydro-1H-pyrido[2,3-b][1,4]oxazin-7-yl)amino)-2-oxo-1,2-dihydropyridine-3-carboxamide]
5 | 100 to 1000 | Cc1c(Nc2cc[nH]c(=O)c2C(=O)Nc2ccc3c(c2)C(=O)NCC3)cnc2c1NCCO2 [Example 260, 4-((8-methyl-2,3-dihydro-1H-pyrido[2,3-b][1,4]oxazin-7-yl)amino)-2-oxo-N-(1-oxo-1,2,3,4-tetrahydroisoquinolin-7-yl)-1,2-dihydropyridine-3-carboxamide]
6 | ≤ 10 | Cc1c(Nc2cc[nH]c(=O)c2C(=O)Nc2ccc(N3CCN(C)CC3)c(Cl)c2)cnc2c1NCCO2 [Example 261, N-(3-chloro-4-(4-methylpiperazin-1-yl)phenyl)-4-((8-methyl-2,3-dihydro-1H-pyrido[2,3-b][1,4]oxazin-7-yl)amino)-2-oxo-1,2-dihydropyridine-3-carboxamide]
7 | 10 to 100 | Cc1c(Nc2cc[nH]c(=O)c2C(=O)Nc2ccc(N3CCN(S(C)(=O)=O)CC3)cc2)cnc2c1NCCO2 [Example 262, 4-((8-methyl-2,3-dihydro-1H-pyrido[2,3-b][1,4]oxazin-7-yl)amino)-N-(4-(4-(methylsulfonyl)piperazin-1-yl)phenyl)-2-oxo-1,2-dihydropyridine-3-carboxamide]
8 | ≤ 10 | Cc1c(Nc2cc[nH]c(=O)c2C(=O)Nc2ccc(N3CCN(C)CC3)c(N)c2)cnc2c1NCCO2 [Example 263, N-(3-Amino-4-(4-methylpiperazin-1-yl)phenyl)-4-((8-methyl-2,3-dihydro-1H-pyrido[2,3-b][1,4]oxazin-7-yl)amino)-2-oxo-1,2-dihydropyridine-3-carboxamide]
9 | 10 to 100 | CCn1nccc1-c1ccc(NC(=O)c2c(Nc3cnc4c(c3C)NCCO4)cc[nH]c2=O)cc1 [Example 264, N-(4-(1-ethyl-1H-pyrazol-5-yl)phenyl)-4-((8-methyl-2,3-dihydro-1H-pyrido[2,3-b][1,4]oxazin-7-yl)amino)-2-oxo-1,2-dihydropyridine-3-carboxamide]
10 | 10 to 100 | CCn1nc(C(F)(F)F)cc1-c1ccc(NC(=O)c2c(Nc3cnc4c(c3C)NCCO4)cc[nH]c2=O)cc1 [Example 265, N-(4-(1-ethyl-3-(trifluoromethyl)-1H-pyrazol-5-yl)phenyl)-4-((8-methyl-2,3-dihydro-1H-pyrido[2,3-b][1,4]oxazin-7-yl)amino)-2-oxo-1,2-dihydropyridine-3-carboxamide]
11 | ≤ 10 | Cc1c(Nc2cc[nH]c(=O)c2C(=O)Nc2ccc(N3CCN(C)C[C@@H]3C)cc2)cnc2c1NCCO2 [Example 266, (S)-N-(4-(2,4-dimethylpiperazin-1-yl)phenyl)-4-((8-methyl-2,3-dihydro-1H-pyrido[2,3-b][1,4]oxazin-7-yl)amino)-2-oxo-1,2-dihydropyridine-3-carboxamide]
12 | 10 to 100 | Cc1c(Nc2cc[nH]c(=O)c2C(=O)Nc2ccc(N3CCN(C)CC3=O)cc2)cnc2c1NCCO2 [Example 267, 4-((8-methyl-2,3-dihydro-1H-pyrido[2,3-b][1,4]oxazin-7-yl)amino)-N-(4-(4-methyl-2-oxopiperazin-1-yl)phenyl)-2-oxo-1,2-dihydropyridine-3-carboxamide]
13 | 10 to 100 | Cc1c(Nc2cc[nH]c(=O)c2C(=O)Nc2ccc(N3CCNC(=O)C3)cc2)cnc2c1NCCO2 [Example 268, 4-((8-methyl-2,3-dihydro-1H-pyrido[2,3-b][1,4]oxazin-7-yl)amino)-2-oxo-N-(4-(3-oxopiperazin-1-yl)phenyl)-1,2-dihydropyridine-3-carboxamide]
14 | 10 to 100 | Cc1c(Nc2cc[nH]c(=O)c2C(=O)Nc2ccc3c(c2)OCC(=O)N3)cnc2c1NCCO2 [Example 269, 4-((8-methyl-2,3-dihydro-1H-pyrido[2,3-b][1,4]oxazin-7-yl)amino)-2-oxo-N-(3-oxo-3,4-dihydro-2H-benzo[b][1,4]oxazin-7-yl)-1,2-dihydropyridine-3-carboxamide]
15 | ≤ 10 | Cc1c(Nc2cc[nH]c(=O)c2C(=O)Nc2ccc(N3CCN(C)CC3)c(Br)c2)cnc2c1NCCO2 [Example 270, N-(3-bromo-4-(4-methylpiperazin-1-yl)phenyl)-4-((8-methyl-2,3-dihydro-1H-pyrido[2,3-b][1,4]oxazin-7-yl)amino)-2-oxo-1,2-dihydropyridine-3-carboxamide]
16 | 10 to 100 | Cc1c(Nc2cc[nH]c(=O)c2C(=O)Nc2ccc(-c3ccnn3C(C)C)cc2)cnc2c1NCCO2 [Example 271, N-(4-(1-isopropyl-1H-pyrazol-5-yl)phenyl)-4-((8-methyl-2,3-dihydro-1H-pyrido[2,3-b][1,4]oxazin-7-yl)amino)-2-oxo-1,2-dihydropyridine-3-carboxamide]
17 | 10 to 100 | Cc1c(Nc2cc[nH]c(=O)c2C(=O)Nc2ccc(N3CCN(C)C(=O)C3)cc2)cnc2c1NCCO2 [Example 272, 4-((8-methyl-2,3-dihydro-1H-pyrido[2,3-b][1,4]oxazin-7-yl)amino)-N-(4-(4-methyl-3-oxopiperazin-1-yl)phenyl)-2-oxo-1,2-dihydropyridine-3-carboxamide]
18 | 100 to 1000 | Cc1c(Nc2cc[nH]c(=O)c2C(=O)Nc2ccc3ncc(O)nc3c2)cnc2c1NCCO2 [Example 273, N-(3-hydroxyquinoxalin-6-yl)-4-((8-methyl-2,3-dihydro-1H-pyrido[2,3-b][1,4]oxazin-7-yl)amino)-2-oxo-1,2-dihydropyridine-3-carboxamide]
19 | ≤ 10 | Cc1c(Nc2cc[nH]c(=O)c2C(=O)Nc2ccc(N3CCC(N4CCN(C)CC4)CC3)cc2)cnc2c1NCCO2 [Example 274, 4-((8-methyl-2,3-dihydro-1H-pyrido[2,3-b][1,4]oxazin-7-yl)amino)-N-(4-(4-(4-methylpiperazin-1-yl)piperidin-1-yl)phenyl)-2-oxo-1,2-dihydropyridine-3-carboxamide]
20 | ≤ 10 | COCCN1CCC(c2ccc(NC(=O)c3c(Nc4cnc5c(c4C)NCCO5)cc[nH]c3=O)cc2F)CC1 [Example 276, N-(3-fluoro-4-(1-(2-methoxyethyl)piperidin-4-yl)phenyl)-4-((8-methyl-2,3-dihydro-1H-pyrido[2,3-b][1,4]oxazin-7-yl)amino)-2-oxo-1,2-dihydropyridine-3-carboxamide]
21 | 10 to 100 | Cc1c(Nc2cc[nH]c(=O)c2C(=O)Nc2ccc(N3CCC(C)CC3)cc2)cnc2c1NCCO2 [Example 280, 4-((8-methyl-2,3-dihydro-1H-pyrido[2,3-b][1,4]oxazin-7-yl)amino)-N-(4-(4-methylpiperidin-1-yl)phenyl)-2-oxo-1,2-dihydropyridine-3-carboxamide]
22 | 10 to 100 | CCCCC(CC)CNC(=O)c1ccc(NC(=O)c2c(Nc3cnc4c(c3C)NCCO4)cc[nH]c2=O)cc1 (stereo not drawn) [Example 281, N-(4-((2-ethylhexyl)carbamoyl)phenyl)-4-((8-methyl-2,3-dihydro-1H-pyrido[2,3-b][1,4]oxazin-7-yl)amino)-2-oxo-1,2-dihydropyridine-3-carboxamide]
23 | ≤ 10 | Cc1c(Nc2cc[nH]c(=O)c2C(=O)Nc2ccc(N3CCN(CC(C)(C)O)CC3)cc2)cnc2c1NCCO2 [Example 282, N-(4-(4-(2-hydroxy-2-methylpropyl)piperazin-1-yl)phenyl)-4-((8-methyl-2,3-dihydro-1H-pyrido[2,3-b][1,4]oxazin-7-yl)amino)-2-oxo-1,2-dihydropyridine-3-carboxamide]
24 | ≤ 10 | Cc1c(Nc2cc[nH]c(=O)c2C(=O)Nc2ccc(N3CCN(C(=O)C4CCCC4)CC3)cc2)cnc2c1NCCO2 [Example 283, N-(4-(4-(cyclopentanecarbonyl)piperazin-1-yl)phenyl)-4-((8-methyl-2,3-dihydro-1H-pyrido[2,3-b][1,4]oxazin-7-yl)amino)-2-oxo-1,2-dihydropyridine-3-carboxamide]
25 | ≤ 10 | COCC(=O)N1CCN(c2ccc(NC(=O)c3c(Nc4cnc5c(c4C)NCCO5)cc[nH]c3=O)cc2)CC1 [Example 284, N-(4-(4-(2-methoxyacetyl)piperazin-1-yl)phenyl)-4-((8-methyl-2,3-dihydro-1H-pyrido[2,3-b][1,4]oxazin-7-yl)amino)-2-oxo-1,2-dihydropyridine-3-carboxamide]
26 | ≤ 10 | COCCC(=O)N1CCN(c2ccc(NC(=O)c3c(Nc4cnc5c(c4C)NCCO5)cc[nH]c3=O)cc2)CC1 [Example 285, N-(4-(4-(3-methoxypropanoyl)piperazin-1-yl)phenyl)-4-((8-methyl-2,3-dihydro-1H-pyrido[2,3-b][1,4]oxazin-7-yl)amino)-2-oxo-1,2-dihydropyridine-3-carboxamide]
27 | ≤ 10 | Cc1c(Nc2cc[nH]c(=O)c2C(=O)Nc2ccc(N3CCN(c4cccnc4)CC3)cc2)cnc2c1NCCO2 [Example 286, 4-((8-methyl-2,3-dihydro-1H-pyrido[2,3-b][1,4]oxazin-7-yl)amino)-2-oxo-N-(4-(4-(pyridin-3-yl)piperazin-1-yl)phenyl)-1,2-dihydropyridine-3-carboxamide]

From patent US20250282794A1 (CURADEV PHARMA LTD, priority 2022, published 2025)
